According to US12410153B2, “Compounds, compositions and methods” (Avalo Therapeutics, Inc., priority 2014, dated 2025):
Read-outs that look alike come from different tables or passages of the source.

Assay: Repeated once-daily oral dosing with food (Days 1-7) in healthy subjects, PK and PD
Format: in vivo, human
Conditions: for AUC(0-t) / Cmax / Vd/F / Tmax / AUC(0-inf) / half-life: both sexes, human, plasma, oral; for Cmax: read-out: Cmax, Mean (SD); for AUC(0-inf): read-out: AUCinf, Mean (SD)
Procedure: A randomized, double-blind, placebo-controlled, parallel-dose group in-patient study is conducted to investigate the pharmacodynamic (PD) effects of crystalline Form II of Compound (I) in healthy subjects.
The study is designed as a three-part, sequential study. The sequential nature of the study ensures that a range of doses are investigated first in a young, healthy population (Part 1) before proceeding to higher doses in the healthy population and the comparator populations (intermediate age and elderly) (Parts 2 and 3). For the purposes of this study, “young” refers to a subject who is 18 to 45 years of age, “intermediate age” refers to a subject who is 46 to 64 years of age, and “elderly” refers to a subject who is 65 years of age or older.
After a screening period of up to 21 days (Days −23 to −3), 16 healthy, young male and female subjects are randomly assigned to a dose group as shown in Table 9.
Each parallel dose group is balanced for gender (approximately equal number of males and females). The randomized subjects are domiciled from Day −1 through Day 8. On Day −1, the subjects receive placebo tablets in the fed state and undergo ambulatory blood pressure monitoring (ABPM) and safety assessments to establish time-matched baselines. On Days 1-7, the subjects receive the study drug in the fed state and undergo safety, pharmacokinetic (PK) and pharmacodynamics (PD) assessments. On Days 8-11, follow-up PK and safety assessments are performed.
Safety assessments include Clinician-Administered Dissociative States Scale (CADSS), Columbia-Suicide Severity Rating Scale (C-SSRS), concomitant medication, adverse event (AE) and vital sign assessments. In PK assessments, blood samples are taken and analyzed to determine PK parameters such as Cmax, Tmax, AUC0-24, and t1/2. PD assessments include ABPM, plasma brain-derived neurotrophic factor (BDNF) measurements, and Profile of Mood States (POMS) assessments.
After a screening period of up to 21 days (Days −23 to −3), 16 subjects (8 healthy, young male and female subjects, and 8 healthy, intermediate age male and female subjects) are randomly assigned to a dose group as shown in Table 10.
After a screening period of up to 21 days (Days −23 to −3), 16 subjects (8 healthy, young male and female subjects, and 8 healthy, elderly male and female subjects) are randomly assigned to a dose group as shown in Table 11.

[1] = 8 mg, young subjects, 8 mg, Day 7
[2] = 12 mg, intermediate age, 12 mg, Day 7

For Cc1ccc(COC(=O)N2CC[C@H](CNc3ncccn3)[C@H](F)C2)cc1 [Form II, 4-methylbenzyl (3S, 4R)-3-fluoro-4-[(pyrimidin-2-ylamino)methyl] piperidine-1-carboxylate], the “average 7-day plasma BDNF values compared to placebo” value (16 and 20 mg) was “trend for an increase”, the “apparent oral clearance lower in female vs male subjects” value (Day 7) was “approximately 15%” and the “average Cmax higher in intermediate age and elderly subgroups vs young” value (Day 7) was “approximately 30%”. The “t½ higher in female vs male subjects” value (Day 7) was “approximately 16%”, the “mean plasma concentrations higher in female vs male subjects” value (Day 7, 2 to 24 hours postdose) was “approximately 20%” and the “Cmax and AUC vs dose” value (Days 1 and 7, 8 to 20 mg) was “approximately dose-proportional”. The “average 24 hour and daytime SBP and DBP” value (all doses compared to placebo, maximal by Day 4) was “increased”, the AUC(0-t) (8 mg, young subjects, 8 mg, Day 1, read-out: AUC0-24, Mean (SD)) was 1500 ng·h/mL and the AUC(0-t) (8 mg, young subjects, 8 mg, Day 1, read-out: AUClast, Mean (SD)) was 1490 ng·h/mL. For the same compound, the Cmax (8 mg, young subjects, 8 mg, Day 1) was 179 ng/mL, the Vd/F (8 mg, young subjects, 8 mg, Day 1, read-out: Vz/F, Mean (SD)) was 101 L and the Tmax (8 mg, young subjects, 8 mg, Day 1, read-out: tmax, Mean (SD)) was 2.17 h. The Tmax (8 mg, young subjects, 8 mg, Day 1, read-out: tmax, Median) was 2 h, the AUC(0-t) (8 mg, young subjects, 8 mg, Day 7, read-out: AUC0-24, Mean (SD)) was 2400 ng·h/mL and the AUC(0-inf) [1] was 4110 ng·h/mL. The AUC(0-t) (8 mg, young subjects, 8 mg, Day 7, read-out: AUClast, Mean (SD)) was 3770 ng·h/mL, the Cmax [1] was 224 ng/mL and the half-life (8 mg, young subjects, 8 mg, Day 7, read-out: t1/2, Mean (SD) (converted)) was 1030 min. It also gave a Tmax (8 mg, young subjects, 8 mg, Day 7, read-out: tmax, Mean (SD)) of 2.75 h, a Tmax (8 mg, young subjects, 8 mg, Day 7, read-out: tmax, Median) of 3 h and a half-life (12 mg, Day 7, read-out: average t½, range across age groups) of 1200 to 1680 min. It also gave an AUC(0-t) (12 mg, elderly, 12 mg, Day 1, read-out: AUC0-24, Mean (SD)) of 2130 ng·h/mL, an AUC(0-t) (12 mg, elderly, 12 mg, Day 1, read-out: AUClast, Mean (SD)) of 2100 ng·h/mL and a Cmax (12 mg, elderly, 12 mg, Day 1) of 229 ng/mL. For the same compound, the Vd/F (12 mg, elderly, 12 mg, Day 1, read-out: Vz/F, Mean (SD)) was 164 L, the Tmax (12 mg, elderly, 12 mg, Day 1, read-out: tmax, Mean (SD)) was 1.93 h and the Tmax (12 mg, elderly, 12 mg, Day 1, read-out: tmax, Median) was 1.75 h. The AUC(0-t) (12 mg, elderly, 12 mg, Day 7, read-out: AUC0-24, Mean (SD)) was 4520 ng·h/mL, the AUC(0-inf) (12 mg, elderly, 12 mg, Day 7) was 10300 ng·h/mL and the AUC(0-t) (12 mg, elderly, 12 mg, Day 7, read-out: AUClast, Mean (SD)) was 9140 ng·h/mL. For the same compound, the Cmax (12 mg, elderly, 12 mg, Day 7) was 349 ng/mL, the Vd/F (12 mg, elderly, 12 mg, Day 7, read-out: Vss/F, Mean (SD)) was 111 L and the half-life (12 mg, elderly, 12 mg, Day 7, read-out: t1/2, Mean (SD) (converted)) was 1700 min. For the same compound, the Tmax (12 mg, elderly, 12 mg, Day 7, read-out: tmax, Mean (SD)) was 2.26 h, the Tmax (12 mg, elderly, 12 mg, Day 7, read-out: tmax, Median) was 2 h and the AUC(0-t) (12 mg, intermediate age, 12 mg, Day 1, read-out: AUC0-24, Mean (SD)) was 2000 ng·h/mL. For the same compound, the AUC(0-t) (12 mg, intermediate age, 12 mg, Day 1, read-out: AUClast, Mean (SD)) was 1980 ng·h/mL, the Cmax (12 mg, intermediate age, 12 mg, Day 1) was 257 ng/mL and the Vd/F (12 mg, intermediate age, 12 mg, Day 1, read-out: Vz/F, Mean (SD)) was 201 L. The Tmax (12 mg, intermediate age, 12 mg, Day 1, read-out: tmax, Mean (SD)) was 2.5 h, the Tmax (12 mg, intermediate age, 12 mg, Day 1, read-out: tmax, Median) was 2.5 h and the AUC(0-t) (12 mg, intermediate age, 12 mg, Day 7, read-out: AUC0-24, Mean (SD)) was 3840 ng·h/mL. The AUC(0-inf) [2] was 8100 ng·h/mL, the AUC(0-t) (12 mg, intermediate age, 12 mg, Day 7, read-out: AUClast, Mean (SD)) was 7470 ng·h/mL and the Cmax [2] was 360 ng/mL. The Vd/F (12 mg, intermediate age, 12 mg, Day 7, read-out: Vss/F, Mean (SD)) was 121 L, the half-life (12 mg, intermediate age, 12 mg, Day 7, read-out: t1/2, Mean (SD) (converted)) was 1570 min and the Tmax (12 mg, intermediate age, 12 mg, Day 7, read-out: tmax, Mean (SD)) was 1.83 h. For the same compound, the Tmax (12 mg, intermediate age, 12 mg, Day 7, read-out: tmax, Median) was 1.5 h.
